Experimental data from PubChem BioAssay (NCI).
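The compound was tested at five concentrations on cells cultured in 96-well plates, with a 48-hour exposure period. GI50: concentration for 50% inhibition of growth. TGI is the concentration that stops growth completely.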

Columns and labels:
Test in all cases: NCI tumour cell line growth inhibition, 48 h
[1] = system: DU-145 prostate
[2] = system: MOLT-4 leukemia
[3] = system: OVCAR-5 ovarian
[4] = system: HCT-116 colon
[5] = system: ACHN renal
[6] = system: SNB-19 CNS
[7] = system: NCI-H522 lung
[8] = system: SK-OV-3 ovarian
[9] = system: CAKI-1 renal
[10] = system: PC-3 prostate
[11] = system: U251 CNS
[12] = system: HL-60(TB) leukemia
[13] = system: HS 578T breast
[14] = system: KM12 colon
[15] = system: OVCAR-3 ovarian
[16] = system: T-47D breast
[17] = system: RXF 393 renal
[18] = system: MALME-3M melanoma
[19] = system: COLO 205 colon
[20] = system: HOP-62 NSCLC
[21] = system: RPMI-8226 leukemia
[22] = system: OVCAR-8 ovarian
[23] = system: NCI-H226 lung
[24] = system: BT-549 breast
[25] = system: IGROV1 ovarian
[26] = system: UACC-257 melanoma
[27] = system: SN12C renal
[28] = system: HOP-92 NSCLC
[29] = system: SW-620 colon
[30] = system: SK-MEL-5 melanoma
[31] = system: OVCAR-4 ovarian
[32] = system: SF-295 CNS
[33] = system: M14 melanoma
[34] = system: SF-268 CNS
[35] = system: MDA-MB-435
[36] = system: CCRF-CEM leukemia
[37] = system: MCF7 breast
[38] = system: HT29 colon
[39] = system: HCT-15 colon
[40] = system: SF-539 CNS
[41] = system: UO-31 renal
[42] = system: SNB-75 CNS
[43] = system: SK-MEL-28 melanoma
[44] = system: SR leukemia
[45] = system: A549 NSCLC
[46] = system: HCC-2998 colon
[47] = system: SK-MEL-2 melanoma
[48] = system: UACC-62 melanoma
[49] = system: NCI/ADR-RES ovarian
[50] = system: MDA-MB-231 breast
[51] = system: K-562 leukemia
[52] = system: TK-10 renal
[53] = system: NCI-H460 lung
[54] = system: LOX IMVI melanoma
[55] = system: 786-0 renal
[56] = system: A498 renal
[57] = system: NCI-H23 lung

Molecule `COc1cc(C2CC(=O)Nc3c2c(C)nn3-c2nc3ccccc3[nH]2)cc(OC)c1O` (centres undefined) has a GI50 [1] of 4.98 µM, a TGI [1] of 40.3 µM and a GI50 [2] of 0.0427 µM. For the same molecule, the TGI [2] was 0.242 µM, the GI50 [3] was 11.6 µM and the TGI [3] was 30.4 µM. For the same molecule, the GI50 [4] was 3.45 µM, the TGI [4] was > 100 µM and the GI50 [5] was 3.11 µM. The TGI [5] was > 28.6 µM, the GI50 [6] was 3.5 µM and the TGI [6] was > 100 µM. It also gave a GI50 [7] of 2.38 µM, a TGI [7] of 5.78 µM and a GI50 [8] of 2.7 µM. For the same molecule, the TGI [8] was 5.9 µM, the GI50 [9] was 2.36 µM and the TGI [9] was 5.44 µM. The GI50 [10] was 3.49 µM, the TGI [10] was 38.8 µM and the GI50 [11] was 3.49 µM. The TGI [11] was > 40.8 µM, the GI50 [12] was 3.05 µM and the TGI [12] was 16.8 µM. For the same molecule, the GI50 [13] was 2.05 µM, the TGI [13] was 7.7 µM and the GI50 [14] was 3.26 µM. It also gave a TGI [14] of 12.4 µM, a GI50 [15] of 2.95 µM and a TGI [15] of 7.78 µM. The GI50 [16] was 3.45 µM, the TGI [16] was 16.9 µM and the GI50 [17] was 2.17 µM. The TGI [17] was 5.14 µM, the GI50 [18] was 1.75 µM and the TGI [18] was 3.74 µM. The GI50 [19] was 17.2 µM, the TGI [19] was 46 µM and the GI50 [20] was 3.72 µM. It also gave a TGI [20] of 17 µM, a GI50 [21] of 3.07 µM and a TGI [21] of 12.5 µM. The GI50 [22] was 3.4 µM, the TGI [22] was > 32.1 µM and the GI50 [23] was 2.46 µM. For the same molecule, the TGI [23] was 7.16 µM, the GI50 [24] was 2.6 µM and the TGI [24] was 6.09 µM. The GI50 [25] was 2.82 µM, the TGI [25] was 7.63 µM and the GI50 [26] was 2.98 µM. For the same molecule, the TGI [26] was > 24.5 µM, the GI50 [27] was 3.98 µM and the TGI [27] was > 72.3 µM. The GI50 [28] was 2.8 µM, the TGI [28] was 8.81 µM and the GI50 [29] was 3.04 µM. For the same molecule, the TGI [29] was 17.4 µM, the GI50 [30] was 1.83 µM and the TGI [30] was 3.62 µM. For the same molecule, the GI50 [31] was 2.43 µM, the TGI [31] was 11.4 µM and the GI50 [32] was 1.33 µM. The TGI [32] was 3.71 µM, the GI50 [33] was 2.12 µM and the TGI [33] was 5.53 µM. For the same molecule, the GI50 [34] was 3.83 µM, the TGI [34] was 45 µM and the GI50 [35] was 1.98 µM. The TGI [35] was 4.42 µM, the GI50 [36] was 1.34 µM and the TGI [36] was > 100 µM. For the same molecule, the GI50 [37] was 3.13 µM, the TGI [37] was > 100 µM and the GI50 [38] was 3.66 µM. For the same molecule, the TGI [38] was 16.6 µM, the GI50 [39] was 3.69 µM and the TGI [39] was > 100 µM. It also gave a GI50 [40] of 3.1 µM, a TGI [40] of 13.5 µM and a GI50 [41] of 2.49 µM. It also gave a TGI [41] of 7.7 µM, a GI50 [42] of 1.85 µM and a TGI [42] of 5.13 µM. For the same molecule, the GI50 [43] was 2.4 µM, the TGI [43] was 6.58 µM and the GI50 [44] was 3.35 µM. The TGI [44] was 14.5 µM, the GI50 [45] was 3.45 µM and the TGI [45] was > 40.2 µM. For the same molecule, the GI50 [46] was 6.48 µM, the TGI [46] was 35.7 µM and the GI50 [47] was 2.23 µM. It also gave a TGI [47] of 4.52 µM, a GI50 [48] of 2.06 µM and a TGI [48] of 4.9 µM. The GI50 [49] was 7.81 µM, the TGI [49] was > 78.2 µM and the GI50 [50] was 2.98 µM. The TGI [50] was 8.15 µM, the GI50 [51] was 4.67 µM and the TGI [51] was > 100 µM. It also gave a GI50 [52] of 2.84 µM, a TGI [52] of 7.67 µM and a GI50 [53] of 3.19 µM. For the same molecule, the TGI [53] was > 35.1 µM, the GI50 [54] was 3.08 µM and the TGI [54] was 10.9 µM. The GI50 [55] was 3.01 µM, the TGI [55] was 9.39 µM and the GI50 [56] was 1.86 µM. It also gave a TGI [56] of 6.1 µM, a GI50 [57] of 3.15 µM and a TGI [57] of 11.2 µM.
